Reference: US20100267561A1, “HERBICIDAL PYRIDAZINONE DERIVATIVES” (priority 2007, published 2010)

How the values were obtained:
Assay type in all cases: in vivo
[1] = tested on: barnyardgrass (Echinochloa crus-galli); test: Test A pre-/postemergence plant response
Outline: (§1)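 Greenhouse pot test: loam–sand soil; pre- and postemergence sprays applied same day; post plants 2–10 cm, 1–2 leaves. Readout ~10 d, visual % injury vs untreated (0 = none, 100 = complete control).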

[2] = tested on: corn (Zea mays); test: Test A pre-/postemergence plant response
Outline: as §1

[3] = tested on: large crabgrass (Digitaria sanguinalis); test: Test A pre-/postemergence plant response
Outline: as §1

[4] = tested on: morningglory (Ipomoea coccinea); test: Test A pre-/postemergence plant response
Outline: as §1

[5] = tested on: pigweed (Amaranthus retroflexus); test: Test A pre-/postemergence plant response
Outline: as §1

[6] = tested on: velvetleaf (Abutilon theophrasti); test: Test A pre-/postemergence plant response
Outline: as §1

[7] = tested on: wheat (Triticum aestivum); test: Test A pre-/postemergence plant response
Outline: as §1

[8] = tested on: canarygrass (Phalaris minor); test: Test B postemergence plant response; settings: for Canarygrass plant response rating: 8 g ai/ha, postemergence, 0-100 scale; for Plant response rating, Canarygrass: Postemergence
Outline: (§2)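 Visual injury ratings on a 0–100 scale, where 100 means complete control, were made 13 to 15 days after postemergence treatment of greenhouse-grown plants at the 1- to 4-leaf stage.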

[9] = tested on: chickweed (Stellaria media); test: Test B postemergence plant response; settings: for Chickweed plant response rating: 8 g ai/ha, postemergence, 0-100 scale; for Plant response rating, Chickweed: Postemergence
Outline: as §2

[10] = tested on: windgrass (Apera spica-venti); test: Test B postemergence plant response; settings: for Windgrass plant response rating: 8 g ai/ha, postemergence, 0-100 scale; for Plant response rating, Windgrass: Postemergence
Outline: as §2

[11] = tested on: winter barley (Hordeum vulgare); test: Test B postemergence plant response; settings: for Barley plant response rating: 8 g ai/ha, postemergence, 0-100 scale; for Plant response rating, Barley: Postemergence
Outline: as §2

[12] = tested on: barnyardgrass (Echinochloa crus-galli); test: Test B flooded paddy test plant response
Outline: (§3)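 Rice, umbrella sedge, ducksalad and barnyardgrass at 2-leaf stage; pots flooded to 3 cm, compounds applied into paddy water, depth held throughout. Greenhouse 13 to 15 days, then visual rating vs untreated controls on 0–100 scale (0 no effect, 100 complete control); dash means no test result.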

[13] = tested on: ducksalad (Heteranthera limosa); test: Test B flooded paddy test plant response
Outline: as §3

[14] = tested on: rice (Oryza sativa); test: Test B flooded paddy test plant response
Outline: as §3

[15] = tested on: umbrella sedge (Cyperus difformis); test: Test B flooded paddy test plant response
Outline: as §3

[16] = Postemergence, 31 g ai/ha, 0 to 100 scale (0 no effect, 100 complete control)
[17] = Postemergence, 125 g ai/ha, 0 to 100 scale, 0 no effect, 100 complete control
[18] = Preemergence, 31 g ai/ha, 0 to 100 scale, 0 is no effect, 100 is complete control
[19] = Preemergence, 125 g ai/ha, 0 to 100 scale (0 no effect, 100 complete control)
[20] = 31 g ai/ha, scale 0 to 100, 0 no effect, 100 complete control
[21] = 16 g ai/ha, scale 0 to 100, 0 no effect, 100 complete control
[22] = Flood (flooded paddy test), 62 g ai/ha, scale 0 to 100, 0 no effect, 100 complete control
[23] = Flood (flooded paddy test), 250 g ai/ha, scale 0 to 100, 0 no effect, 100 complete control
[24] = 62 g ai/ha, scale 0 to 100, 0 no effect, 100 complete control
[25] = Flood (flooded paddy test), 125 g ai/ha, scale 0 to 100, 0 no effect, 100 complete control
[26] = Flood, 31 g ai/ha, scale 0 to 100

CCc1cc(-c2ccc(F)cc2)nn1-c1c(O)cnn(C)c1=O [Compound 25]
10: Plant response rating, Canarygrass ([8]; 62 g ai/ha, scale 0 to 100)
80: Plant response rating, Barnyardgrass [1, 16] | Plant response rating, Corn [2, 17]
60: Plant response rating, Crabgrass, Large [3, 16] | Plant response rating, Windgrass ([10]; 16 g ai/ha, scale 0 to 100) | Plant response rating, Windgrass [10, 20]
100: Plant response rating, Barnyardgrass [1, 17] | Plant response rating, Barnyardgrass [1, 19]
50: Plant response rating, Barnyardgrass [1, 18] | Plant response rating, Corn [2, 19] | Plant response rating, Wheat [7, 19]
20: Plant response rating, Corn [2, 16] | Plant response rating, Crabgrass, Large [3, 18] | Plant response rating, Wheat [7, 17]
90: Plant response rating, Crabgrass, Large [3, 17] | Plant response rating, Crabgrass, Large [3, 19]
0: Plant response rating, Corn [2, 18] | Plant response rating, Morningglory [4, 16] | Plant response rating, Morningglory [4, 17] | Plant response rating, Morningglory [4, 18] | Plant response rating, Morningglory [4, 19] | Plant response rating, Pigweed [5, 16] | Plant response rating, Pigweed [5, 17] | Plant response rating, Pigweed [5, 18] | Plant response rating, Pigweed [5, 19] | Plant response rating, Velvetleaf [6, 16] | Plant response rating, Velvetleaf [6, 17] | Plant response rating, Velvetleaf [6, 18] | Plant response rating, Velvetleaf [6, 19] | Plant response rating, Wheat [7, 16] | Plant response rating, Wheat [7, 18] | Canarygrass plant response rating [8] | Plant response rating, Canarygrass ([8]; 16 g ai/ha, scale 0 to 100) | Plant response rating, Canarygrass [8, 20] | Chickweed plant response rating [9] | Plant response rating, Chickweed ([9]; 16 g ai/ha, scale 0 to 100) | Plant response rating, Chickweed [9, 20] | Plant response rating, Chickweed ([9]; 62 g ai/ha, scale 0 to 100) | Barley plant response rating [11] | Plant response rating, Barley [11, 21] | Plant response rating, Barley [11, 20] | Plant response rating, Barley ([11]; 62 g ai/ha, scale 0 to 100) | Plant response rating, Barnyardgrass [12, 22] | Plant response rating, Barnyardgrass [12, 23] | Plant response rating, Ducksalad [13, 22] | Plant response rating, Ducksalad [13, 23] | Plant response rating, Rice [14, 22] | Plant response rating, Rice [14, 23] | Plant response rating, Sedge, Umbrella [15, 22] | Plant response rating, Sedge, Umbrella [15, 23]
98: Plant response rating, Windgrass ([10]; 62 g ai/ha, scale 0 to 100)
40: Windgrass plant response rating [10]

Cc1cc(-c2ccc(Cl)cc2)nn1-c1c(OC(=O)c2ccccc2)cnn(C)c1=O [Compound 48]
70: Plant response rating, Velvetleaf [6, 17]
10: Plant response rating, Barley [11, 24]
20: Plant response rating, Barnyardgrass [1, 16] | Plant response rating, Corn [2, 16] | Plant response rating, Crabgrass, Large [3, 16] | Plant response rating, Pigweed [5, 16] | Plant response rating, Velvetleaf [6, 16]
90: Plant response rating, Barnyardgrass [1, 17] | Plant response rating, Canarygrass ([8]; 31 g ai/ha, scale 0 to 100)
60: Plant response rating, Barnyardgrass [1, 18] | Plant response rating, Corn [2, 17] | Plant response rating, Crabgrass, Large [3, 18] | Plant response rating, Wheat [7, 17] | Plant response rating, Windgrass ([10]; 31 g ai/ha, scale 0 to 100)
40: Plant response rating, Windgrass ([10]; 16 g ai/ha, scale 0 to 100)
0: Plant response rating, Morningglory [4, 16] | Plant response rating, Morningglory [4, 17] | Plant response rating, Morningglory [4, 18] | Plant response rating, Morningglory [4, 19] | Plant response rating, Pigweed [5, 18] | Plant response rating, Pigweed [5, 19] | Plant response rating, Velvetleaf [6, 18] | Plant response rating, Velvetleaf [6, 19] | Plant response rating, Wheat [7, 16] | Canarygrass plant response rating [8] | Plant response rating, Canarygrass ([8]; 16 g ai/ha, scale 0 to 100) | Chickweed plant response rating [9] | Plant response rating, Chickweed ([9]; 16 g ai/ha, scale 0 to 100) | Plant response rating, Chickweed ([9]; 31 g ai/ha, scale 0 to 100) | Plant response rating, Chickweed [9, 24] | Windgrass plant response rating [10] | Barley plant response rating [11] | Plant response rating, Barley [11, 21] | Plant response rating, Barnyardgrass [12, 22] | Plant response rating, Barnyardgrass [12, 25] | Plant response rating, Barnyardgrass [12, 26] | Plant response rating, Ducksalad [13, 22] | Plant response rating, Ducksalad [13, 25] | Plant response rating, Ducksalad [13, 26] | Plant response rating, Rice [14, 22] | Plant response rating, Rice [14, 25] | Plant response rating, Rice [14, 23] | Plant response rating, Rice [14, 26] | Plant response rating, Sedge, Umbrella [15, 22] | Plant response rating, Sedge, Umbrella [15, 25] | Plant response rating, Sedge, Umbrella [15, 26]
50: Plant response rating, Sedge, Umbrella [15, 23]
80: Plant response rating, Corn [2, 19] | Plant response rating, Crabgrass, Large [3, 17] | Plant response rating, Wheat [7, 19] | Plant response rating, Windgrass [10, 24]
100: Plant response rating, Barnyardgrass [1, 19] | Plant response rating, Crabgrass, Large [3, 19]
30: Plant response rating, Pigweed [5, 17] | Plant response rating, Wheat [7, 18] | Plant response rating, Barnyardgrass [12, 23] | Plant response rating, Ducksalad [13, 23]
